Here are results for 35 molecules from patent publication US20120053148A1, “INHIBITORS OF HEPATITIS C VIRUS” (GILEAD SCIENCES, INC., priority 2010, published 2012).

Each structure is given as a SMILES string.

In one experiment the test system is HCV Replicon IB. Description: HCV replicon assay in Huh-7 cells, genotype 1b (Rluc luciferase readout). In kind it is cell-based, hepatitis C virus. The note with it: Hepatitis C virus, 72 h; 10 μM; Huh-7 HCV replicon cells, 3 days; read-out: % inhibition @ 10 μM HCV Replicon IB. For orientation: In antiviral work, replicon cells carry a viral genome segment that copies itself.

Another experiment relates to HCV Replicon IA. The experiment can be described thus: HCV replicon assay in Huh-7 cells, genotype 1a. In kind it is cell-based. As to conditions: Hepatitis C virus, 72 h, Huh-7 HCV replicon cells, 3 days.

The term inhibition denotes the drop in the measured response relative to a control, in per cent. Turning to `O=C(NCc1ccccc1)c1cc(O)c2cc(-c3cn[nH]c3)cc(C(F)(F)F)c2n1` [Compound 5], the inhibition at 10 µM in the experiment on HCV Replicon IB and in the experiment with HCV Replicon IA was 99.2% in each case.

Take `Nc1cc(O)c2cc(-c3ccccc3)cc(C(F)(F)F)c2n1` [Compound 39]: the inhibition at 10 µM is 65% in the experiment with HCV Replicon IB and 92.5% with HCV Replicon IA.

For the molecule `O=C(NCc1cccs1)c1cc(O)c2cc(-c3ccoc3)cc(C(F)(F)F)c2n1` [Compound 7], the inhibition at 10 µM in the experiment with HCV Replicon IB is 99.8%; with HCV Replicon IA it was 99.2%.

In the case of `O=C(NCc1cccs1)c1nc(O)c2cc(-c3ccccc3)cc(C(F)(F)F)c2n1` [Compound 47, 4-oxo-6-phenyl-8-trifluoromethyl-3,4-dihydro-quinazoline-2-carboxylic acid (thiophen-2-ylmethyl)-amide], the inhibition at 10 µM with HCV Replicon IB stood at 99.8%; in the experiment with HCV Replicon IA, 99.7%.

Take `O=C(NCc1cccs1)c1cc(O)c2cc(-c3cn[nH]c3)cc(C(F)(F)F)c2n1` [Compound 36]: the inhibition at 10 µM was 99.4% in the experiment with HCV Replicon IB and 99.3% in the experiment with HCV Replicon IA.

Take `O=C(c1cc(O)c2cc(-c3ccoc3)cc(C(F)(F)F)c2n1)N1CC=C(c2ccccc2)CC1` [Compound 29]: the values for the inhibition at 10 µM with HCV Replicon IB and with HCV Replicon IA were 37.7% and 87.4%, respectively.

`O=C(NCc1cccs1)c1cc(O)c2cc(-c3cc[nH]n3)cc(C(F)(F)F)c2n1` [Compound 35]: the inhibition at 10 µM with HCV Replicon IB is 94.5%; in the experiment on HCV Replicon IA, 94.2%.

For `O=C(NCc1cccs1)c1cc(O)c2cc(-c3ccccc3)c(F)c(C(F)(F)F)c2n1` [Compound 59], the inhibition at 10 µM with HCV Replicon IB stood at 97.2%; in the experiment on HCV Replicon IA it was 92.7%.

Turning to `O=C(NCc1cccs1)c1cc(O)c2cc(-c3ccccc3)cc(C(F)(F)F)c2n1` [Compound 34], the inhibition at 10 µM with HCV Replicon IB came to 98.3%; in the experiment with HCV Replicon IA, 97.8%.

`Cc1cc(C(=O)NCc2cccs2)nc2c(C(F)(F)F)cc(-c3ccoc3)cc12` [Compound 28]: the figures for the inhibition at 10 µM in the experiment on HCV Replicon IB and in the experiment with HCV Replicon IA were 100% and 99.8%, respectively.

For the molecule `O=C(NCc1ccncc1)c1cc(O)c2cc(-c3cn[nH]c3)cc(C(F)(F)F)c2n1` [Compound 13], the inhibition at 10 µM in the experiment with HCV Replicon IB was 20.7%; in the experiment with HCV Replicon IA it was 43.4%.

For the molecule `Oc1cc(-c2nnc(Nc3ccccc3)o2)nc2c(C(F)(F)F)cc(-c3ccccc3)cc12` [Compound 54], the inhibition at 10 µM with HCV Replicon IB amounted to 98.7%; with HCV Replicon IA, 97.9%.

In the case of `COc1cc(C(=O)NCc2cccs2)nc2c(C(F)(F)F)cc(-c3ccoc3)cc12` [Compound 27], the inhibition at 10 µM with HCV Replicon IB turned out to be 80.3%; in the experiment with HCV Replicon IA it was 65.5%.

On to `Nc1cc(C(=O)NCc2cccs2)nc2c(C(F)(F)F)cc(-c3ccccc3)cc12` [Compound 66], for which the inhibition at 10 µM with HCV Replicon IB and with HCV Replicon IA was 99.9% each time.

Consider `O=C(NCc1cncs1)c1cc(O)c2cc(-c3cn[nH]c3)cc(C(F)(F)F)c2n1` [Compound 8], for which the values for the inhibition at 10 µM with HCV Replicon IB and in the experiment on HCV Replicon IA were 94% and 98.8%, respectively.

Regarding `O=C(c1cc(O)c2cc(-c3ccoc3)cc(C(F)(F)F)c2n1)N1CCC(c2ccc(F)cc2)CC1` [Compound 30], the inhibition at 10 µM in the experiment with HCV Replicon IB stood at 74.9%; with HCV Replicon IA it was 95.3%.

Consider `C[C@@H](NC(=O)c1cc(O)c2cc(-c3cn[nH]c3)cc(C(F)(F)F)c2n1)c1ccccc1` (single isomer, unassigned) [Compound 18], for which the inhibition at 10 µM came to 55.8% in the experiment with HCV Replicon IB and 55.3% with HCV Replicon IA.

As to `O=C(NCCc1ccccc1)c1cc(O)c2cc(-c3cn[nH]c3)cc(C(F)(F)F)c2n1` [Compound 16], the inhibition at 10 µM in the experiment with HCV Replicon IB was found to be 96.7%; in the experiment with HCV Replicon IA, 93%.

For the molecule `O=C(c1cc(O)c2cc(-c3ccoc3)cc(C(F)(F)F)c2n1)N1CCC(c2cccc(F)c2)CC1` [Compound 31], the inhibition at 10 µM was determined as 58.1% with HCV Replicon IB and 98.1% in the experiment with HCV Replicon IA.

`O=C(NCc1cccnc1)c1cc(O)c2cc(-c3cn[nH]c3)cc(C(F)(F)F)c2n1` [Compound 11]: the figures for the inhibition at 10 µM with HCV Replicon IB and with HCV Replicon IA were 66.1% and 63.2%, respectively.

As to `O=C(NCc1cccs1)c1cc(Cl)c2cc(-c3ccoc3)cc(C(F)(F)F)c2n1` [Compound 25], the inhibition at 10 µM in the experiment on HCV Replicon IB came out at 99.7%; with HCV Replicon IA it was 98.7%.

With `O=C(NCc1cccs1)c1cc(O)c2c(Cl)c(-c3ccccc3)cc(C(F)(F)F)c2n1` [Compound 64], the inhibition at 10 µM came to 88.2% with HCV Replicon IB and 79.2% in the experiment on HCV Replicon IA.

For `Nc1nc(C(=O)NCc2cccs2)nc2c(C(F)(F)F)cc(-c3ccccc3)cc12` [Compound 51], the inhibition at 10 µM in the experiment on HCV Replicon IB and in the experiment with HCV Replicon IA was 100% each time.

Take `O=C(Cc1cccs1)Nc1cc(O)c2cc(-c3ccccc3)cc(C(F)(F)F)c2n1` [Compound 40]: the inhibition at 10 µM was 97.6% in the experiment on HCV Replicon IB and 99.7% in the experiment with HCV Replicon IA.

Turning to `O=C(NCc1cccs1)c1nc(O)c2cc(-c3ccoc3)cc(C(F)(F)F)c2n1` [Compound 48], the inhibition at 10 µM was 99.9% with HCV Replicon IB and 99.4% with HCV Replicon IA.

Regarding `O=C(NCc1cccs1)c1cc(Cl)c2cc(-c3ccccc3)cc(C(F)(F)F)c2n1` [Compound 65], the inhibition at 10 µM is 99.5% in the experiment with HCV Replicon IB and 97.5% in the experiment on HCV Replicon IA.

For the molecule `O=C(NCc1cocn1)c1cc(O)c2cc(-c3cn[nH]c3)cc(C(F)(F)F)c2n1` [Compound 10], the inhibition at 10 µM in the experiment with HCV Replicon IB was 74.3%; in the experiment on HCV Replicon IA, 80.7%.

In the case of `O=C(NCc1ccccn1)c1cc(O)c2cc(-c3cn[nH]c3)cc(C(F)(F)F)c2n1` [Compound 12], the inhibition at 10 µM in the experiment on HCV Replicon IB turned out to be 99.2%; in the experiment with HCV Replicon IA it was 98.2%.

Turning to `O=C(NCc1cccs1)c1nc(N2CCCC2)c2cc(-c3ccccc3)cc(C(F)(F)F)c2n1` [Compound 53], the results for the inhibition at 10 µM in the experiment with HCV Replicon IB and in the experiment on HCV Replicon IA were 86.2% and 91.4%, respectively.

As to `O=C(NCc1ccc(Cl)s1)c1cc(O)c2cc(-c3cc[nH]n3)cc(C(F)(F)F)c2n1` [Compound 14], the inhibition at 10 µM worked out at 68.6% in the experiment with HCV Replicon IB and 84.2% in the experiment with HCV Replicon IA.

As for `O=C(NCc1ccncn1)c1cc(O)c2cc(-c3cn[nH]c3)cc(C(F)(F)F)c2n1` [Compound 15], the results for the inhibition at 10 µM in the experiment with HCV Replicon IB and with HCV Replicon IA were 47.3% and 59.3%, respectively.

For the molecule `O=C(NCc1ccccn1)c1cc(O)c2cc(-c3ccccc3F)cc(C(F)(F)F)c2n1` [Compound 70], the inhibition at 10 µM stood at 82% in the experiment on HCV Replicon IB and 69.1% in the experiment on HCV Replicon IA.

Take `O=C(Nc1ccccc1)c1cc(O)c2cc(-c3cn[nH]c3)cc(C(F)(F)F)c2n1` [Compound 19]: the inhibition at 10 µM in the experiment with HCV Replicon IB is 71.1%; with HCV Replicon IA, 98.5%.

As for `CNc1nc(C(=O)NCc2cccs2)nc2c(C(F)(F)F)cc(-c3ccccc3)cc12` [Compound 52], the inhibition at 10 µM worked out at 100% in the experiment with HCV Replicon IB and 99.6% in the experiment on HCV Replicon IA.

On to `O=C(NCc1ccccn1)c1cc(Cl)c2cc(-c3ccccc3)cc(C(F)(F)F)c2n1` [Compound 67], for which the inhibition at 10 µM in the experiment with HCV Replicon IB turned out to be 97.8%; in the experiment on HCV Replicon IA it was 96.9%.
